# Laboratory results: US4973603A, “Platelet activating factor antagonist and methods of use therefor” (priority 1989, dated 1990)
# “Also recorded” adds a separate entry of the source.
# Test system: gastric mucosa
# Procedure: Robert and Szabo, In: Selye's Guide to Stress Research, (Vol. 2, A. Selye, Ed.) New York; Van Nostrand Reinhold Co., pp. 22-46 (1983); and Robert et al., Gastroenterology, 77:433-443 (1979). Experimental groups of 5-11 rats (Charles River CD) were fasted for 24 hours before the administration of either aspirin, Formula I or indomethacin by a rubber stomach tube (Rusch No. 8). The animals were killed 1 hour later by carbon dioxide asphyxiation. At that time, 4 ml of 10% aqueous buffered formaldehyde (formalin) was injected directly into the stomach of each animal. […] After 5 minutes of in situ fixation, the stomach and proximal duodenum were removed, opened along the greater curvature, pinned on a cork with mucosa upward, and immersed in 10% formaldehyde until further processing. Szabo, S. et al., J. Pharmacol. Meth., 13:59-66 (1985). The gastric lesions were then evaluated by direct visual inspection.
# For comparative purposes, a semiquantitative scale of 0-3 was used to assess the extent of gastric mucosal lesions. Szabo et al., Science, 214:200-202 (1981); and Szabo et al., Gastroenterology, 85:1384-1390 (1983). According to this scale, a score of 0 indicates a normal mucosa; 1 represents the appearance of between 1 and 4 small petechiae; 2 indicates the presence of 5 or more petechiae or hemmorhagic streaks up to 4 mm in length; 3 represents the appearance of erosions longer than 5 mm or confluent hemmorrhages.
compound,measurement,setting,value
"CCCCCc1cc(O)c2c(c1)OC(C)(C)C1CC=C(C(=O)O)CC21 (stereo not drawn) [Formula I, 6a,7,10,10a-tetrahydro-6,6-dimethyl-9-carboxyl-3-pentyl-6H-dibenzo[b,d]pyran-1-ol]",Incidence (rats with lesions/total tested),"80 mg/kg by stomach tube, 1 hour",0/10
same,Mean Score,"80 mg/kg by stomach tube, 1 hour, scale 0-3 (0 = normal mucosa)",0.0
same,ulcer / gastric lesion formation (in words),"directly into the stomach, Formula I at twice its therapeutic dose in the mouse (40 mg/kg), 40 mg/kg",did not induce ulcer formation; also recorded: does not induce the formation of gastric lesions
